Data as given in patent publication US10118930B2, “Piperidinylpyrazolopyrimidinones and their use” (BAYER PHARMA AKTIENGESELLSCHAFT, priority 2015, dated 2018).
pIC50: −log10 of the molar value. Where a name gives a salt, the structure may show the parent alone.

Test system: clot lysis (fibrinolysis) in diluted human citrated plasma, tPA-induced
Assay: Plasma-based clot lysis assay (5%)
Type: biochemical
Details: human citrated platelet-poor plasma 5%, fibrinogen 3 μM, CaCl2 10 mM, tPA 0.2 nM, 37° C., OD at 405 nm
Procedure, shortened: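 Clot formation and breakdown triggered by CaCl2 (10 mM final) plus tPA (0.2 nM final) at 37° C, in 5% diluted human plasma supplemented with 3 μM fibrinogen (HEPES/NaCl/Brij buffer, pH 7). IC50 obtained from time courses relative to a blank control.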

Row | SMILES | pIC50 | pIC50 (acetate)
1 | Cc1cccc(-c2noc(-c3cnn4c(C5CCNCC5)cc(=O)[nH]c34)n2)c1 [Example 120, 3-[3-(3-Methylphenyl)-1,2,4-oxadiazol-5-yl]-7-(piperidin-4-yl)pyrazolo[1,5-a]pyrimidin-5 (4H)-one hydrochloride] | 7.46 | 
2 | O=C(O)c1noc(-c2cnn3c(C4CCNCC4)cc(=O)[nH]c23)n1 [Example 221, 5-[5-oxo-7-(piperidin-4-yl)-4,5-dihydropyrazolo[1,5-a]pyrimidin-3-yl]-1,2,4-oxadiazole-3-carboxylic acid hydrochloride] | 7.32 | 
3 | O=c1cc(C2CCNCC2)n2ncc(-c3nnc(CN4CCCCC4)o3)c2[nH]1 [Example 291, 7-(piperidin-4-yl)-3-[5-(piperidin-1-ylmethyl)-1,3,4-oxadiazol-2-yl]pyrazolo[1,5-a]pyrimidin-5(4H)-one hydrochloride] | 7.07 | 
4 | Cc1cc(C(F)(F)F)ccc1-c1noc(-c2cnn3c(C4CCNCC4)cc(=O)[nH]c23)n1 [Example 139, 3-{3-[2-Methyl-4-(trifluoromethyl)phenyl]-1,2,4-oxadiazol-5-yl}-7-(piperidin-4-yl)pyrazolo[1,5-a]pyrimidin-5(4H)-one hydrochloride] | 7.39 | 
5 | NC(=S)c1cnn2c(C3CCNCC3)cc(=O)[nH]c12 [Example 287, 5-oxo-7-(piperidin-4-yl)-4,5-dihydropyrazolo[1,5-a]pyrimidine-3-carbothioamide hydrochloride] | 7.43 | 
6 | O=c1cc(C2CCNCC2)n2ncc(-c3nnc(C4CCCC4)o3)c2[nH]1 [Example 177, 3-(5-cyclopentyl-1,3,4-oxadiazol-2-yl)-7-(piperidin-4-yl)pyrazolo[1,5-a]pyrimidin-5(4H)-one hydrochloride] | 7.40 | 
7 | NC(=O)CCNC(=O)c1cnn2c(C3CCNCC3)cc(=O)[nH]c12 [Example 89, N-(3-amino-3-oxopropyl)-5-oxo-7-(piperidin-4-yl)-4,5-dihydropyrazolo[1,5-a]pyrimidine-3-carboxamide hydrochloride] | 6.85 | 
8 | CS(=O)(=O)Cc1noc(-c2cnn3c(C4CCNCC4)cc(=O)[nH]c23)n1 [Example 191, 3-{3-[(methylsulfonyl)methyl]-1,2,4-oxadiazol-5-yl}-7-(piperidin-4-yl)pyrazolo[1,5-a]pyrimidin-5(4H)-one hydrochloride] | 7.47 | 
9 | O=c1cc(C2CCNCC2)n2ncc(-c3noc(-c4ccc(Cl)cc4)n3)c2[nH]1 [Example 233, 3-[5-(4-chlorophenyl)-1,2,4-oxadiazol-3-yl]-7-(piperidin-4-yl)pyrazolo[1,5-a]pyrimidin-5(4H)-one hydrochloride] | 7.44 | 
10 | O=c1cc(C2CCNCC2)n2ncc(-c3noc(-c4cc(Cl)cc(Cl)c4)n3)c2[nH]1 [Example 234, 3-[5-(3,5-dichlorophenyl)-1,2,4-oxadiazol-3-yl]-7-(piperidin-4-yl)pyrazolo[1,5-a]pyrimidin-5(4H)-one hydrochloride] | 7.46 | 
11 | O=c1cc(C2CCNCC2)n2ncc(-c3nnc(C4CC4)o3)c2[nH]1 [Example 174, 3-(5-cyclopropyl-1,3,4-oxadiazol-2-yl)-7-(piperidin-4-yl)pyrazolo[1,5-a]pyrimidin-5 (4H)-one hydrochloride] | 7.47 | 
12 | O=c1cc(C2CCNCC2)n2ncc(-c3noc(-c4cccc(Cl)c4F)n3)c2[nH]1 [Example 218, 3-[5-(3-chloro-2-fluorophenyl)-1,2,4-oxadiazol-3-yl]-7-(piperidin-4-yl)pyrazolo[1,5-a]pyrimidin-5(4H)-one hydrochloride] | 7.27 | 
13 | Cc1ccccc1-c1csc(-c2cnn3c(C4CCNCC4)cc(=O)[nH]c23)n1 [Example 448, 3-[4-(2-methylphenyl)-1,3-thiazol-2-yl]-7-(piperidin-4-yl)pyrazolo[1,5-a]pyrimidin-5(4H)-one acetate] |  | 7.52
14 | CCOC(=O)c1c(SC)nn2c(C3CCNCC3)cc(=O)[nH]c12 [Example 455, Ethyl 2-(methylsulfanyl)-5-oxo-7-(piperidin-4-yl)-4,5-dihydropyrazolo[1,5-a]pyrimidine-3-carboxylate hydrochloride] | 7.44 | 
15 | O=c1cc(C2CCNCC2)n2ncc(-c3nc(-c4cc(C(F)(F)F)ccn4)no3)c2[nH]1 [Example 147, 7-(piperidin-4-yl)-3-{3-[4-(trifluoromethyl)pyridin-2-yl]-1,2,4-oxadiazol-5-yl}pyrazolo[1,5-a]pyrimidin-5(4H)-one hydrochloride] | 7.42 | 
16 | CSc1nn2c(C3CCNCC3)cc(=O)[nH]c2c1C(=O)O [Example 469, 2-(methylsulfanyl)-5-oxo-7-(piperidin-4-yl)-4,5-dihydropyrazolo[1,5-a]pyrimidine-3-carboxylic acid hydrochloride] | 6.80 | 
17 | Cc1nn2c(C3CCNCC3)cc(=O)[nH]c2c1C(=O)OCCCF [Example 464, 3-fluoropropyl 2-methyl-5-oxo-7-(piperidin-4-yl)-4,5-dihydropyrazolo[1,5-a]pyrimidine-3-carboxylate hydrochloride] | 6.89 | 
18 | O=c1cc(C2CCNCC2)n2ncc(-c3nc(-c4cccc(Cl)n4)no3)c2[nH]1 [Example 133, 3-[3-(6-Chloropyridin-2-yl)-1,2,4-oxadiazol-5-yl]-7-(piperidin-4-yl)pyrazolo[1,5-a]pyrimidin-5(4H)-one hydrochloride] | 7.41 | 
19 | COC(=O)c1ccc(-c2noc(-c3cnn4c(C5CCNCC5)cc(=O)[nH]c34)n2)cc1 [Example 204, Methyl 4-{5-[5-oxo-7-(piperidin-4-yl)-4,5-dihydropyrazolo[1,5-a]pyrimidin-3-yl]-1,2,4-oxadiazol-3-yl}benzoate hydrochloride] | 7.46 | 
20 | O=c1cc(C2CCNCC2)n2ncc(-c3nc(-c4ccc(C(F)(F)F)cc4)no3)c2[nH]1 [Example 113, 7-(Piperidin-4-yl)-3-{3-[4-(trifluoromethyl)phenyl]-1,2,4-oxadiazol-5-yl}pyrazolo[1,5-a]pyrimidin-5(4H)-one hydrochloride] | 7.36 | 
21 | O=c1cc(C2CCNCC2)n2ncc(-c3nc(Cc4cccc(C(F)(F)F)c4)no3)c2[nH]1 [Example 222, 7-(piperidin-4-yl)-3-{3-[3-(trifluoromethyl)benzyl]-1,2,4-oxadiazol-5-yl}pyrazolo[1,5-a]pyrimidin-5(4H)-one hydrochloride] | 7.43 | 

Continued by rising pIC50, values first:

Row | pIC50 | pIC50 (acetate) | SMILES
22 | 7.48 |  | CCc1cccc(NC(=O)c2cnn3c(C4CCNCC4)cc(=O)[nH]c23)c1 [Example 80, N-(3-ethylphenyl)-5-oxo-7-(piperidin-4-yl)-4,5-dihydropyrazolo[1,5-a]pyrimidine-3-carboxamide]
23 | 7.54 |  | O=c1cc(C2CCNCC2)n2ncc(-c3nc(-c4cccc(F)c4)no3)c2[nH]1 [Example 112, 3-[3-(3-Fluorophenyl)-1,2,4-oxadiazol-5-yl]-7-(piperidin-4-yl)pyrazolo[1,5-a]pyrimidin-5 (4H)-one hydrochloride]
24 | 7.55 |  | Cc1noc(-c2c(C)nn3c(C4CCNCC4)cc(=O)[nH]c23)n1 [Example 339, 2-methyl-3-(3-methyl-1,2,4-oxadiazol-5-yl)-7-(piperidin-4-yl)pyrazolo[1,5-a]pyrimidin-5(4H)-one hydrochloride]
25 | 7.57 |  | COCCCc1nc(-c2cnn3c(C4CCNCC4)cc(=O)[nH]c23)no1 [Example 395, 3-(5-(3-methoxypropyl)-1,2,4-oxadiazol-3-yl)-7-(piperidin-4-yl)pyrazolo[1,5-a]pyrimidin-5(4H)-one hydrochloride]
26 | 7.57 |  | O=C(OCCC(F)(F)F)c1cnn2c(C3CCNCC3)cc(=O)[nH]c12 [Example 355, 3,3,3-trifluoropropyl 5-oxo-7-(piperidin-4-yl)-4,5-dihydropyrazolo[1,5-a]pyrimidine-3-carboxylate hydrochloride]
27 | 7.62 |  | COc1ccc(-c2noc(-c3cnn4c(C5CCNCC5)cc(=O)[nH]c34)n2)c(C)c1 [Example 154, 3-[3-(4-methoxy-2-methylphenyl)-1,2,4-oxadiazol-5-yl]-7-(piperidin-4-yl)pyrazolo[1,5-a]pyrimidin-5(4H)-one hydrochloride]
28 | 7.62 |  | N#Cc1cccc(-c2cnn3c(C4CCNCC4)cc(=O)[nH]c23)c1 [Example 50, 3-[5-Oxo-7-(piperidin-4-yl)-4,5-dihydropyrazolo[1,5-a]pyrimidin-3-yl]benzonitrile trifluoroacetate]
29 | 7.64 |  | CCc1nc(-c2cnn3c(C4CCNCC4)cc(=O)[nH]c23)no1 [Example 262, 3-(5-ethyl-1,2,4-oxadiazol-3-yl)-7-(piperidin-4-yl)pyrazolo[1,5-a]pyrimidin-5(4H)-one hydrochloride]
30 | 7.80 |  | O=c1cc(C2CCNCC2)n2ncc(-c3cccc(C(F)(F)F)c3)c2[nH]1 [Example 58, 7-(Piperidin-4-yl)-3-[3-(trifluoromethyl)phenyl]pyrazolo[1,5-a]pyrimidin-5(4H)-one hydrochloride]
31 | 7.80 |  | C[C@H]1C[C@H](c2cc(=O)[nH]c3c(C(N)=O)cnn23)CCN1 [Example 51, (−)-trans-7-(2-Methylpiperidin-4-yl)-5-oxo-4,5-dihydropyrazolo[1,5-a]pyrimidine-3-carboxamide trifluoroacetate]
32 | 7.82 |  | CC(C)=Cc1nc(-c2cnn3c(C4CCNCC4)cc(=O)[nH]c23)no1 [Example 383, 3-[5-(2-Methylprop-1-en-1-yl)-1,2,4-oxadiazol-3-yl]-7-(piperidin-4-yl)pyrazolo[1,5-a]pyrimidin-5 (4H)-one hydrochloride]
33 | 7.89 |  | N#Cc1ccc(-c2cnn3c(C4CCNCC4)cc(=O)[nH]c23)cc1 [Example 47, 4-[5-Oxo-7-(piperidin-4-yl)-4,5-dihydropyrazolo[1,5-a]pyrimidin-3-yl]benzonitrile trifluoroacetate]
34 | 7.92 |  | O=C(c1cnn2c(C3CCNCC3)cc(=O)[nH]c12)N1CC(F)(F)C1 [Example 326, 3-[(3,3-difluoroazetidin-1-yl)carbonyl]-7-(piperidin-4-yl)pyrazolo[1,5-a]pyrimidin-5 (4H)-one hydrochloride]
